Our source for the EC50 and IC50 values is patent publication US11459315B2, “Modulators of methyl modifying enzymes, compositions and uses thereof” (Constellation Pharmaceuticals, Inc., priority 2017, dated 2022).

Read-outs that look alike come from different tables or passages of the source. Some results are limits rather than exact numbers.

For test [1], the system named is H3K27me3 mark in HeLa cells (EZH2). Put plainly: H3K27me3 Alpha Hela Assay (AlphaLISA). Format: cell-based. The note with it: HeLa cells, 72 hrs, read-out: EZH2 Cell H3K27me3 Alpha HeLa (EC50 K27me3). The procedure, abridged: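 HeLa cells (1,000/well) treated with ten 3-fold compound doses for 72 h at 37 °C; lysates extracted and H3K27me3 detected by AlphaLISA with anti-K27me3 acceptor beads, biotinylated anti-H3 (3 nM) and streptavidin donor beads. EC50 from DMSO-normalized dose-response curves; duplicate plate assessed viability.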
On the technique in general: Bead proximity is the source of the signal in Alpha formats.

Test [2] addresses PRC2 containing wt EZH2 (Homo sapiens (Human), UniProt Q15910). Put plainly: EZH2 biochemical assay (IC50), 3H-SAM incorporation into biotinylated H3 peptide. The note with it: 30 pM PRC2 containing wt EZH2, 3-5 h pre-incubation. The procedure, abridged: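 Activity was measured as ³H-methyl transfer to a biotinylated H3K27me1 peptide over 18-22 h at room temperature, with capture on streptavidin flash plates. The 30 pM wt-EZH2 PRC2 complex was first pre-incubated 3-5 h with compound, 450 nM SAM/450 nM ³H-SAM and 2 µM H3K27me3 activator (pH 8.5, 0.8% DMSO). Four-parameter fits gave IC50.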

Chain of PRC2 containing wt EZH2 (Q15910 whole entry): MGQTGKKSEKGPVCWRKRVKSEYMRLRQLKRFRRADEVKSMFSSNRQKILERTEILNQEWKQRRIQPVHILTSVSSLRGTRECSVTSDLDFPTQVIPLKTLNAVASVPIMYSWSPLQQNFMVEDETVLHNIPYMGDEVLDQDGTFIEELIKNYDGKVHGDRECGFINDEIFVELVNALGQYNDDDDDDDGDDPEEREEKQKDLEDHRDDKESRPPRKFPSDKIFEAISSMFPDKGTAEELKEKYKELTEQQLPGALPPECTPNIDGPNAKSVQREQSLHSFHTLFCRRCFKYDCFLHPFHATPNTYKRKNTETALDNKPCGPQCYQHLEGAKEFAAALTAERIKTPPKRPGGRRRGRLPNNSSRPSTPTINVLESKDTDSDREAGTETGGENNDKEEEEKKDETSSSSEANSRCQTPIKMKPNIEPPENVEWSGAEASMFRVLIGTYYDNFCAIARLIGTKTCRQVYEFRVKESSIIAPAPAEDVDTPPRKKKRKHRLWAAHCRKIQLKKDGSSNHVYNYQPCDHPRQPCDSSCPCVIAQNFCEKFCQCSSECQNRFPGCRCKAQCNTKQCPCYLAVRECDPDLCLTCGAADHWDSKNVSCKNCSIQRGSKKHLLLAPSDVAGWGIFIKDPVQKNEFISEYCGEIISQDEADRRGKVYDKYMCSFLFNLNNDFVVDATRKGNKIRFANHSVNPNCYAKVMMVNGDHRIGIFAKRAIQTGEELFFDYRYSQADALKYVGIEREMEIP
Chain of PRC2 containing wt EZH2 (O75530 whole entry partner): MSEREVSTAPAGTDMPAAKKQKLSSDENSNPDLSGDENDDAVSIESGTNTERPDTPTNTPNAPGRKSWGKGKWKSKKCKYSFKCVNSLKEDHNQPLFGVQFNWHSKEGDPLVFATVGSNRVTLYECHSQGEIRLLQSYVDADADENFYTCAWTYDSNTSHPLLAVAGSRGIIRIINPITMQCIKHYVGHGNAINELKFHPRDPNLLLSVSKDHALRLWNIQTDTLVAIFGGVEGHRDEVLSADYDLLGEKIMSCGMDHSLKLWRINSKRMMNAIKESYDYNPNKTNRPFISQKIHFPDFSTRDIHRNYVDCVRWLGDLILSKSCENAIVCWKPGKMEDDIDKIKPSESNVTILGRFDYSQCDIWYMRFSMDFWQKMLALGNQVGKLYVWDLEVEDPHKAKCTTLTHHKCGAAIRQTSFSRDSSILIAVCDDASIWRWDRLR
Chain of PRC2 containing wt EZH2 (Q15022 whole entry partner): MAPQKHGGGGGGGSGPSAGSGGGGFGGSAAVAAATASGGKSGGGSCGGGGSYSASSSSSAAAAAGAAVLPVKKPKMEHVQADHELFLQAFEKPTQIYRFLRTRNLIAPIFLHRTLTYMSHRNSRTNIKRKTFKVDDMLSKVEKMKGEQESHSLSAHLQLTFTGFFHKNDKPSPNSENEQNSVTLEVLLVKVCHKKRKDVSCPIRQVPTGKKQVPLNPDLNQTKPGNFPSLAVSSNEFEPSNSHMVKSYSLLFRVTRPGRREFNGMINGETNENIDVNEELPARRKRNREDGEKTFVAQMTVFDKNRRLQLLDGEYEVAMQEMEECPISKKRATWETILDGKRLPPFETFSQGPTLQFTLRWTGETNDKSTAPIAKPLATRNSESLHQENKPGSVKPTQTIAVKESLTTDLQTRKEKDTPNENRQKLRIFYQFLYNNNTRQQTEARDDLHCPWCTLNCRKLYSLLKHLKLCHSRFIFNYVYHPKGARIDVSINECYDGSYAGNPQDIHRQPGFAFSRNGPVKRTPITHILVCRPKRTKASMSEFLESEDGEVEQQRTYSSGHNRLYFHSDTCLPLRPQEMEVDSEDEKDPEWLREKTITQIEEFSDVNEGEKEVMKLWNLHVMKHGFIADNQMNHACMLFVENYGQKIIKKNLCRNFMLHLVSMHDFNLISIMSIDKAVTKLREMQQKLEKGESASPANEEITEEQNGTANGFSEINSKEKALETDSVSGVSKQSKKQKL
Chain of PRC2 containing wt EZH2 (Q09028 whole entry partner): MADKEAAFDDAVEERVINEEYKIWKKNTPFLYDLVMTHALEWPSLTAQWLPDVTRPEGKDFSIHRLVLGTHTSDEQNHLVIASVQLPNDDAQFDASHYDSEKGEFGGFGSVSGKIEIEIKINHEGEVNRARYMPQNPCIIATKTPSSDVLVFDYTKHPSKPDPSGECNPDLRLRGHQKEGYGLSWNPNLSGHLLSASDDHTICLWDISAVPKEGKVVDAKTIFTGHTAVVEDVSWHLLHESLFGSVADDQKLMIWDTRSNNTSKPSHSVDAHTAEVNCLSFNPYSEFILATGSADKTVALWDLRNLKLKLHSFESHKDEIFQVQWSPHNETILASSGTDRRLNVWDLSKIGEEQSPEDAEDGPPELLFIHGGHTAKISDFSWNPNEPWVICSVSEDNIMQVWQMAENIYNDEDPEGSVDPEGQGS
Chain of PRC2 containing wt EZH2 (Q6ZN18 whole entry partner): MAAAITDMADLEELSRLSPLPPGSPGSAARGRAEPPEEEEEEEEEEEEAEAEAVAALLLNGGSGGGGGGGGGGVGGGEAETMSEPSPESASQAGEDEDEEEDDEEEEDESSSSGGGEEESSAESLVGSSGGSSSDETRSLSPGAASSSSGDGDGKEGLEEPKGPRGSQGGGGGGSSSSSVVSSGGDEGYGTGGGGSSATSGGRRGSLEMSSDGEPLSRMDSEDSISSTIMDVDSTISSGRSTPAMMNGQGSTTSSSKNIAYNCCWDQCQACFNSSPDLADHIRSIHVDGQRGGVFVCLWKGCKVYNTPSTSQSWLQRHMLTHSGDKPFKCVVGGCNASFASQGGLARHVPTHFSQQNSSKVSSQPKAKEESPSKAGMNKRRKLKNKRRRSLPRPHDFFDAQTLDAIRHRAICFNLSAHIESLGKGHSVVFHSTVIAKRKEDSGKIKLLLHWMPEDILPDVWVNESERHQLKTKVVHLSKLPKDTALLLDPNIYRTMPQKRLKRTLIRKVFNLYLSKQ

As for `COC1CN(C2CCC([C@@H](C)n3c(C)c(C(=O)NCc4c(SC)cc(C)[nH]c4=O)c4cccnc43)CC2)C1` (single isomer, unassigned) [76 (isomer 1)], the EC50 in test [1] is under 10 nM. The IC50 in test [2] (EZH2 (IC50)) was under 0.5 nM.
Regarding `CO[C@@H]1CN(C2CCC([C@@H](C)n3c(C)c(C(=O)NCc4c(SC)cc(C)[nH]c4=O)c4cccnc43)CC2)C[C@H]1F` (single isomer, unassigned) [104 (isomer 1)], the EC50 in test [1] lay in the range of 10 to 100 nM. The IC50 in test [2] (read-out: EZH2 (IC50)) is 0.5 to 5 nM.
As for `CSc1cc(C)[nH]c(=O)c1CNC(=O)c1c(C)n([C@H](C)C2CCC(NC3(CO)COC3)CC2)c2cc(F)ccc12` (single isomer, unassigned) [159 (isomer 1)], the EC50 in test [1] (Homo sapiens, HeLa, 72 h) lay in the range of 10 to 100 nM. In test [2] (read-out: EZH2 (IC50)), the IC50 is under 0.5 nM.
In the case of `CSc1cc(C)[nH]c(=O)c1CNC(=O)c1c(C)n([C@H](C)C2CCC(N(C)C3(C)COC3)CC2)c2ccccc12` (single isomer, unassigned) [3 (isomer 2)], in test [1], the EC50 was 10 to 100 nM. The IC50 in test [2] (read-out: EZH2 (IC50)) was under 0.5 nM.
Take `CSc1cc(C)[nH]c(=O)c1CNC(=O)c1c(C)n([C@H](C)C2CCC(N3CC(C#N)C3)CC2)c2ccccc12` (single isomer, unassigned) [138 (isomer 1)]: the EC50 in test [1] (Homo sapiens, HeLa, 72 h) lay within 10 to 100 nM. This molecule gave an IC50 in test [2] (EZH2 (IC50)) of 0.5 to 5 nM.
Take `COC1CN(C2CCC([C@@H](C)n3c(C)c(C(=O)NCc4c(SC)cc(C)[nH]c4=O)c4cccnc43)CC2)C1` (single isomer, unassigned) [76 (isomer 2)]: the EC50 in test [1] is over 100 nM. In test [2] (EZH2 (IC50)), this molecule had an IC50 of 0.5 to 5 nM.
Turning to `CSc1cc(C)[nH]c(=O)c1CNC(=O)c1c(C)n([C@H](C)C2CCC(NC3(CF)COC3)CC2)c2ccccc12` (single isomer, unassigned) [154 (isomer 1)], in test [1] (Homo sapiens, HeLa, 72 h), the EC50 was 10 to 100 nM. Besides, the half-maximal inhibitory concentration (IC50) in test [2] (read-out: EZH2 (IC50)) is under 0.5 nM.
Take `CSc1cc(C)[nH]c(=O)c1CNC(=O)c1c(C)n([C@H](C)C2CCC(N(C)C)CC2)c2ncccc12` (single isomer, unassigned) [51 (isomer 1)]: the EC50 in test [1] lay within 10 to 100 nM. Further, the IC50 in test [2] (read-out: EZH2 (IC50)) was under 0.5 nM.
In the case of `CC[C@H](C1CCC(N2CC(OC(F)F)C2)CC1)n1c(C)c(C(=O)NCc2c(SC)cc(C)[nH]c2=O)c2cccnc21` (stereo partly drawn) [Example 118, 1-((R)-1-(4-(3-(difluoromethoxy)azetidin-1-yl)cyclohexyl)propyl)-2-methyl-N-((6-methyl-4-(methylthio)-2-oxo-1,2-dihydropyridin-3-yl)methyl)-1H-pyrrolo[2,3-b]pyridine-3-carboxamide], the EC50 in test [1] (Homo sapiens, HeLa, 72 h) was under 10 nM. Further, in test [2] (read-out: EZH2 (IC50)), the IC50 was under 0.5 nM.
Turning to `CSc1cc(C)[nH]c(=O)c1CNC(=O)c1c(C)n([C@H](C)C2CCC(N3CC(OC(C)(C)C)C3)CC2)c2ncc(Cl)cc12` (stereo partly drawn) [Example 129, 1-((R)-1-(4-(3-(tert-butoxy)azetidin-1-yl)cyclohexyl)ethyl)-5-chloro-2-methyl-N-((6-methyl-4-(methylthio)-2-oxo-1,2-dihydropyridin-3-yl)methyl)-1H-pyrrolo[2,3-b]pyridine-3-carboxamide], in test [1] (Homo sapiens, HeLa, 72 h), the EC50 is under 10 nM. Further, the IC50 in test [2] (read-out: EZH2 (IC50)) is under 0.5 nM.
`CSc1cc(C)[nH]c(=O)c1CNC(=O)c1c(C)n([C@H](C)C2CCN(CC(F)(F)F)CC2)c2cc(Br)ccc12` [Example 127, (R)-6-bromo-2-methyl-N-((6-methyl-4-(methylthio)-2-oxo-1,2-dihydropyridin-3-yl)methyl)-1-(1-(1-(2,2,2-trifluoroethyl)piperidin-4-yl)ethyl)-1H-indole-3-carboxamide]: in test [1] (Homo sapiens, HeLa, 72 h), the EC50 lay in the range of 10 to 100 nM. The molecule further showed an IC50 in test [2] (EZH2 (IC50)) of under 0.5 nM.
For `CSc1cc(C)[nH]c(=O)c1CNC(=O)c1c(C)n([C@H](C)[C@H]2CCN(C3CC3)C[C@H]2F)c2ccccc12` [Example 56, 1-((R)-1-((3S,4R)-1-cyclopropyl-3-fluoropiperidin-4-yl)ethyl)-2-methyl-N-((6-methyl-4-(methylthio)-2-oxo-1,2-dihydropyridin-3-yl)methyl)-1H-indole-3-carboxamide], in that order: under 10 nM and under 0.5 nM.
For `CSc1cc(C)[nH]c(=O)c1CNC(=O)c1c(C)n([C@H](C)C2CCC(O)CC2)c2cc(F)ccc12` (single isomer, unassigned) [44 (isomer 1)], the EC50 in test [1] (Homo sapiens, HeLa, 72 h) is under 10 nM. The molecule further showed an IC50 in test [2] (EZH2 (IC50)) of under 0.5 nM.
For `CSc1cc(C)[nH]c(=O)c1CNC(=O)c1c(C)n([C@H](C)C2CCN(C3CC3)CC2)c2ncccc12` [Example 26, (R)-1-(1-(1-cyclopropylpiperidin-4-yl)ethyl)-2-methyl-N-((6-methyl-4-(methylthio)-2-oxo-1,2-dihydropyridin-3-yl)methyl)-1H-pyrrolo[2,3-b]pyridine-3-carboxamide] the same measures were under 10 nM and under 0.5 nM.
Regarding `COC1CN(C2CCC([C@@H](C)n3c(C)c(C(=O)NCc4c(SC)cc(C)[nH]c4=O)c4cc(F)cnc43)CC2)C1` (single isomer, unassigned) [94 (isomer 1)], the EC50 in test [1] is under 10 nM. The IC50 in test [2] (read-out: EZH2 (IC50)) is under 0.5 nM.
As to `CSc1cc(C)[nH]c(=O)c1CNC(=O)c1c(C)n([C@H](C)C2CCC(N3CC(O)(C(C)C)C3)CC2)c2ncccc12` (stereo partly drawn) [Example 158, 1-((R)-1-(4-(3-hydroxy-3-isopropylazetidin-1-yl)cyclohexyl)ethyl)-2-methyl-N-((6-methyl-4-(methylthio)-2-oxo-1,2-dihydropyridin-3-yl)methyl)-1H-pyrrolo[2,3-b]pyridine-3-carboxamide], the EC50 in test [1] (Homo sapiens, HeLa, 72 h) was over 100 nM. The IC50 in test [2] (read-out: EZH2 (IC50)) was under 0.5 nM.
Regarding `CSc1cc(C)[nH]c(=O)c1CNC(=O)c1c(C)n([C@H](C)C2CCC(N3CCCC3=O)CC2)c2ccccc12` (stereo partly drawn) [Example 72, 2-methyl-N-((6-methyl-4-(methylthio)-2-oxo-1,2-dihydropyridin-3-yl)methyl)-1-((R)-1-(4-(2-oxopyrrolidin-1-yl)cyclohexyl)ethyl)-1H-indole-3-carboxamide], the EC50 in test [1] (Homo sapiens, HeLa, 72 h) lay in the range of 10 to 100 nM. Also, in test [2] (read-out: EZH2 (IC50)), the IC50 is under 0.5 nM.
Turning to `CSc1cc(C)[nH]c(=O)c1CNC(=O)c1c(C)n([C@H](C)C2CCC(N3CC(OC(F)F)C3)CC2)c2ncc(F)cc12` (stereo partly drawn) [Example 122, 1-((R)-1-(4-(3-(difluoromethoxy)azetidin-1-yl)cyclohexyl)ethyl)-5-fluoro-2-methyl-N-((6-methyl-4-(methylthio)-2-oxo-1,2-dihydropyridin-3-yl)methyl)-1H-pyrrolo[2,3-b]pyridine-3-carboxamide], the EC50 in test [1] (Homo sapiens, HeLa, 72 h) was under 10 nM. Further, the IC50 in test [2] (read-out: EZH2 (IC50)) was under 0.5 nM.
`CSc1cc(C)[nH]c(=O)c1CNC(=O)c1c(C)n([C@H](C)C2CCN(CC(F)(F)F)CC2)c2cccc(Cl)c12` [Example 103, (R)-4-chloro-2-methyl-N-((6-methyl-4-(methylthio)-2-oxo-1,2-dihydropyridin-3-yl)methyl)-1-(1-(1-(2,2,2-trifluoroethyl)piperidin-4-yl)ethyl)-1H-indole-3-carboxamide]: the EC50 in test [1] (Homo sapiens, HeLa, 72 h) was under 10 nM. This molecule also came in with an IC50 in test [2] (EZH2 (IC50)) of under 0.5 nM.
On to `COCCN(C)C1COC([C@@H](C)n2c(C)c(C(=O)NCc3c(SC)cc(C)[nH]c3=O)c3ccccc32)OC1` (single isomer, unassigned) [16 (isomer 2)], for which, in test [1], the concentration giving a half-maximal response (EC50) is over 100 nM. Besides, the 50% inhibitory concentration (IC50) in test [2] (read-out: EZH2 (IC50)) was over 5 nM.

As a reminder, the EC50 is the concentration needed to bring the measured effect to its halfway point. Broadly, the IC50 is the concentration that inhibits the measured activity by half.
